# Values joined by “and” are separate entries in the source; they are usually repeats but may differ in a detail not shown here. Equal values may be shown once.
# Tests used:
# [1] = target: T1, Human immunodeficiency virus type 1 integrase (Human immunodeficiency virus 1, UniProt Q7ZJM1)
# Description: Inhibition of recombinant HIV-1 Integrase in strand transfer enzyme assay.
# [2] = test system: Human immunodeficiency virus 1; assay: In vitro inhibition of (HIV-1 IIIB) replication.; type: functional; details: for IC95: Human immunodeficiency virus 1, read-out: CIC95
# [3] = target: T1, Human immunodeficiency virus type 1 integrase; assay: Inhibitory activity was determined against recombinant HIV-1 Integrase (0.1 uM) in strand transfer enzyme assay
# T1 sequence (Q7ZJM1 whole entry): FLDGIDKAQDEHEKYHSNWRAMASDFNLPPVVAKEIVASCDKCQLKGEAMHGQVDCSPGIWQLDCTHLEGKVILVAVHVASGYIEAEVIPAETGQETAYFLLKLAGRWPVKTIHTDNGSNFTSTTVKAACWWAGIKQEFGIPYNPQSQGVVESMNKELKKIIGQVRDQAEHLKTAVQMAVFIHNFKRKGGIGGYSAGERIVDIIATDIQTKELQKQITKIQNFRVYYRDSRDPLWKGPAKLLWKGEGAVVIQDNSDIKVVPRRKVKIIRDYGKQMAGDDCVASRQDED
SMILES,IC50 [1],IC50 [3],IC95 [2],CIC95 [2]
O=C(O)C(=O)CC(=O)c1cccc(Cc2ccccc2Cl)c1,< 100 nM,,620 nM,
O=C(O)C(=O)CC(=O)c1cccc(Cc2cccc(Cl)c2)c1,< 100 nM,,940 nM,
CC(C)(C)NC(=O)[C@@H]1CN(Cc2cccnc2)CCN1C[C@@H](O)C[C@@H](Cc1ccccc1)C(=O)N[C@H]1c2ccccc2C[C@H]1O [INDINAVIR],,,55 nM,
O=C(O)C(=O)CC(=O)c1cccn1Cc1ccc(F)cc1,,,9600 nM,
O=C(O)C(=O)CC(=O)c1cccc(Cc2ccc(F)cc2)c1,< 100 nM,,690 nM,
O=C(O)C(=O)CC(=O)c1ccsc1Cc1ccccc1,180 nM,,25000 nM,
O=C(O)C(=O)CC(=O)c1ccccc1Cc1ccccc1,5670 nM,,> 50000 nM,
O=C(O)C(=O)CC(=O)c1csc(Cc2ccccc2)c1,160 nM and 100 nM,,2500 nM,
CC(C)Oc1ccc(Cc2ccccc2)cc1C(=O)CC(=O)C(=O)O,,< 100 nM,100 nM,
CCOc1ccc(Cc2ccccc2)cc1C(=O)CC(=O)C(=O)O,< 100 nM,,150 nM,0.25 µM
O=C(O)C(=O)CC(=O)c1cccn1Cc1ccccc1,220 nM,,41600 nM,

# Second part, led by results:
IC50 [1],IC50 [3],SMILES,IC95 [2],CIC95 [2]
140 nM,,COc1cc(Cc2ccccc2)cc(C(=O)CC(=O)C(=O)O)c1,2080 nM,
250 nM,,O=C(O)C(=O)CC(=O)c1cccc(Cc2cccc(F)c2)c1,2080 nM,
500 nM,,O=C(O)C(=O)CC(=O)c1ccc(Cc2ccccc2)s1,12500 nM,
< 100 nM,,O=C(O)C(=O)CC(=O)c1cccc(Cc2ccccc2F)c1,520 nM,
< 100 nM,,O=C(O)C(=O)CC(=O)c1cccc(Cc2ccccc2)c1,1110 nM,
1000 nM and 500 nM,,O=C(O)C(=O)CC(=O)c1cccc(Cc2ccc(Cl)cc2)c1,25000 nM,
150 nM,,COc1ccc(C(=O)CC(=O)C(=O)O)cc1Cc1ccccc1,1830 nM,
< 100 nM,,COc1ccc(Cc2ccccc2)cc1C(=O)CC(=O)C(=O)O,620 nM,
500 nM and 600 nM,,O=C(O)C(=O)CC(=O)c1ccn(Cc2ccccc2)c1,3000 nM,
